One series addresses T1, SMARCA2 (Homo sapiens, UniProt P51531).
T1 construct: The SMARCA2-1 gene (amino acids 437-1493) encompassing all domains; made in house; host or cells: expiSF9 insect cells (baculovirus, pFASTBac1)
Nature of the series: ATPase activity of SMARCA2 on different DNA/chromatin substrates (enzyme-coupled phosphate release assay). The note with it: 5 μM AT-301; 147 bp nucleosomal DNA, 29 bp duplex DNA, NCP. Format: biochemical. The text has this:
FIG. 9A-C show representative data illustrating that AT-301 attenuates the ATPase activity of SMARCA2 in different DNA/chromatin substrates.
In brief, the disclosed ATPase assay is based on the inorganic phosphate (Pi) release from the enzymatic reaction, wherein the substrate 2-amino-6-mercapto-7-methylpurine ribose (MESG) is converted by purine phosphorylase (PNP) to ribose 1-phosphate and 2-amino-6-mercapto-7-methylpurine. This conversion changes the spectrophotometric shift of MSEG absorbance from 330 nm to 360 nm (FIG. 1C and FIG. 1D).
SMARCA2 can interact with nucleosomal, extra nucleosomal DNA, and a DNA wrapped around the histone octamer. These substrates were prepared, and the ATPase activity of SMARCA2 on these substrates were evaluated in the presence and absence of AT-301. Specifically, as shown in FIG. 9A-C, mononucleosome core particles (NCP) were reconstituted from purified histone octamer and 147 bp widom nucleosomal DNA. An electromobility shift assay (EMSA) was used to monitor the direct binding of SMARCA2 to NCP. […] The ATPase activity of SMARCA2 was also evaluated on alternative substrates (a 29-mer duplex DNA, 147 bp nucleosomal DNA, and reconstituted NCP).

Series [1] concerns ES3 (Ewing's sarcoma) cells. As to the kind of experiment: Apoptosis, IncuCyte Caspase-3/7 green reagent. Format: cell-based. Here is the method: (§1) Referring to FIG. 11A and FIG. 11B, RH4 (FIG. 11A) and ES3 (FIG. 11B) cells were treated with the indicated concentrations of BAF-X-1 or DMSO in triplicate and apoptosis was detected using the IncuCyte Caspase 3/7 green dye (Sartorius). Brightfield and green fluorescence images were captured every 2 hours from 4 fields per well on the IncuCyte live cell imager. The proportion of caspase positive (green) cells relative to % confluence of the well was calculated on the IncuCyte software and plotted against time. Referring to FIG. 11C and FIG. 11D, RH41 cells were treated with 7.5 μM AT-301 (FIG. 11D) or DMSO (FIG. 11C) for 24 hours, harvested with accutase, washed, and fixed in 70% ethanol. They were subsequently stained with propidium iodide/RNase and fluorescence was analyzed on BD flow cytometer. Resulting data was analyzed using FlowJo software.
(§2) The medium was then replaced with fresh medium containing dilutions of the compound (AT-301) or DMSO (as a negative control), and 1× IncuCyte Caspase-3/7 green reagent (Sartorius) and proliferation/apoptosis was measured on IncuCyte live-cell imaging system. The treated cells were imaged every (2/4) hours and four fields from each well were imaged for analysis.

Series [2] relates to RH41 (rhabdomyosarcoma) cells. Nature of the series: Apoptosis, IncuCyte Caspase-3/7 green reagent. Format: cell-based. As to the method:
as §1, §2

Another series relates to HCC827. Nature of the series: Cell proliferation assay and IC50 measurement (PrestoBlue). As to conditions: Homo sapiens, PrestoBlue cell viability. Format: cell-based. Here is the method:
(§3) FIG. 10A-C show representative data illustrating that AT-301 kills Ewing's, RMS, GBM, AML, and other cancer cells. Cell lines were treated with serial dilutions (2×) of AT-301, and IC50 values of each cell line were determined using PrestoBlue dye for cell viability following manufacturer's protocol (Invitrogen, A13261). See also Table 3.
(§4) Jurkat, Molt-4, RH4, RH30, BT40, GBM2, ES3, ES6, ES7, HC827, H1975, H2030 cells: RPMI 1640, 10% FBS, Penicillin (100 units/mL) and streptomycin (100 μg/mL) in the presence of 5% CO2.
(§5) Proliferation of adherent cells was determined on the IncuCyte live-cell imaging system (Essen BioScience). Cells were seeded on clear bottom 96 well plates at a seeding density of 2000 cells/well. Cells were allowed to attach overnight after which the medium was replaced with fresh medium containing serial dilutions (2×) of the compound or DMSO control. Percent confluence was calculated by the IncuCyte software from four different images per well from at least three replicate wells. For non-adherent cells, the 96-well plates were coated with poly-L-lysine before seeding to facilitate cell adhesion. At the end of the assay, dose-dependent cell viability was determined by staining the cells with PrestoBlue (Invitrogen, A13261) as per manufacturer's instructions and IC50 was calculated (FIG. 10).

The test system of a further series is GBM2. Described as above. As to conditions: PrestoBlue cell viability. The series is classed as cell-based. Here is the method: as §3, §4, §5
In the next series the test system is BT40. The series is described as above. Format: cell-based. The note with it: PrestoBlue cell viability. Here is the method:
as §3, §4, §5

Another series concerns Molt4. The description is as above. As to conditions: Homo sapiens, MOLT-4, PrestoBlue cell viability. The series is classed as cell-based. As to the method: as §3, §4, §5
The next series deals with ES6. Described as above. The series is classed as cell-based. The note with it: PrestoBlue cell viability. As to the method: as §3, §4, §5
In the next series the test system is ES3. The series is described as above. Format: cell-based. As to conditions: PrestoBlue cell viability. As to the method: as §3, §4, §5
The subject of a further series is Jurkat. The series is described as above. Format: cell-based. As to conditions: Homo sapiens, PrestoBlue cell viability. Here is the method:
as §3, §4, §5

The next series relates to H1975. Described as above. Format: cell-based. As to conditions: Homo sapiens, NCI-H1975, PrestoBlue cell viability. As to the method: as §3, §4, §5
The next series deals with ES7. Described as above. The series is classed as cell-based. As to conditions: Homo sapiens, PrestoBlue cell viability. As to the method:
as §3, §4, §5

Another series concerns RH4. The description is as above. Format: cell-based. As to conditions: PrestoBlue cell viability. Here is the method:
as §3, §4, §5

In the next series the test system is RH30. Described as above. The series is classed as cell-based. As to conditions: PrestoBlue cell viability. As to the method:
as §3, §4, §5

Another series has as its system H2030. The series is described as above. The series is classed as cell-based. As to conditions: Homo sapiens, NCI-H2030, PrestoBlue cell viability. As to the method: as §3, §4, §5
For a further series, the system named is Ewing's sarcoma (EW13). Nature of the series: Patient-derived xenograft (PDX) mouse model, single mouse testing (SMT). The series is classed as in vivo. The note with it: 50 mg/kg orally three times a week for four weeks. Here is the method:
To assess the antitumor activity of AT-301 in a mouse model, a single mouse testing (SMT) experiment was used. SMT has 95% concordance with conventional testing and allows far greater inclusion of genetic/epigenetic heterogeneity. A patient-derived xenograft (PDX) mouse model (C.B.17 scid females (Envigo, IN)) of Ewing's sarcoma (EW13) was used in the SMT experiment. 50 mg/kg of AT-301 (formulated in 30% captisol) or just vehicle (30% captisol) was administered orally three times a week for four weeks.

The next series has as its system endometrial cancer cells. As to the kind of experiment: Growth/killing of endometrial cancer cells. The series is classed as cell-based. As to conditions: dose-dependent. Here is the method:
as §5
Referring to FIG. 10A, AT-301 kills a variety of cancer cells (brain tumors, rhabdomyosarcoma, nonsmall cell lung cancer, leukemia, and Ewing's Sarcoma. We also tested whether AT-301 can kill cells representing gynecological cancers (ovarian and endometrial cancer). As shown in FIG. 10B-C, AT-301 kills a variety of ovarian and endometrial cancer cells.

SMILES strings stand for the structures. Entries after “also recorded” stand apart in the source; their conditions may differ.

For orientation: IC50 means the concentration that gives 50% inhibition. The low end stands for greater potency in that assay, the high end for weaker potency in that assay.

T1 sequence (P51531 437-1493): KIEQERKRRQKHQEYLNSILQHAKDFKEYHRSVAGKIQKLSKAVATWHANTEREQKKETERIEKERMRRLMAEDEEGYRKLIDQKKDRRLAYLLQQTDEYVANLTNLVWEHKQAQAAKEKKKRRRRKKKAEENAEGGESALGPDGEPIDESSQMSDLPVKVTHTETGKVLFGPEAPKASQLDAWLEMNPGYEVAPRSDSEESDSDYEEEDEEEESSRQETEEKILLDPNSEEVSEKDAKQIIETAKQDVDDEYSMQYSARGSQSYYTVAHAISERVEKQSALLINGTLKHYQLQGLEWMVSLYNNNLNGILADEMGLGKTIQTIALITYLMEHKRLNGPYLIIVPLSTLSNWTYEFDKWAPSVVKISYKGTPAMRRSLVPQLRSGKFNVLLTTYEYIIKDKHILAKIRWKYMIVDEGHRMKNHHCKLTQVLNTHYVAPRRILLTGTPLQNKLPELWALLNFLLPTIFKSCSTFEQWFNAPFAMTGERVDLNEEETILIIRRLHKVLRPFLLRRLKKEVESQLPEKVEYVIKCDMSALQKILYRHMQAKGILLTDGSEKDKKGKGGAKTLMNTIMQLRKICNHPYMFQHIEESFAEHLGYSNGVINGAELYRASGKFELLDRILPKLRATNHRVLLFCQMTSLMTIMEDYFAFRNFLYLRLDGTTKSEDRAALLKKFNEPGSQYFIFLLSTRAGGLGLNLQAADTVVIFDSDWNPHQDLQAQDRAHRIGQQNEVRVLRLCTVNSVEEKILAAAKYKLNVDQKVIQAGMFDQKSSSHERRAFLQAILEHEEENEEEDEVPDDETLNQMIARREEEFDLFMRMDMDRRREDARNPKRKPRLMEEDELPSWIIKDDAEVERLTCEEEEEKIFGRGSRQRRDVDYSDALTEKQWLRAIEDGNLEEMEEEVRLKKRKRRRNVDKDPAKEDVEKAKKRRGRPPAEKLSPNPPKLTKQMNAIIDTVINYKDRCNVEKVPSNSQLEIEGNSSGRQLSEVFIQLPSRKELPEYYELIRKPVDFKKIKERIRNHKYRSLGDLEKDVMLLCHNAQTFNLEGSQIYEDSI

`Clc1ccc(CNc2nc(NC3CCCC3)nc3ccccc23)cc1Cl` [AT-301, N^2-cyclopentyl-N^4-(3,4-dichlorobenzyl)quinazoline-2,4-diamine]: the “ATPase activity of SMARCA2 on different substrates” value on SMARCA2 is listed as “uniformly reduced; also recorded: significantly attenuated”. Besides, the “Apoptosis (caspase 3/7)” value in series [1] and in series [2] was “induces apoptosis” in each case. Further, the IC50 turned out to be 5.21 µM in the series on HCC827; 3.54 µM with GBM2; 3.49 µM in the series with BT40; 4.39 µM in the series with Molt4; 2.84 µM in the series with ES6; 5.21 µM in the series with ES3. Moreover, the IC50 turned out to be 2.81 µM with Jurkat; 5.31 µM in the series on H1975; 4.83 µM in the series with ES7; 6.54 µM in the series on RH4; 2.96 µM with RH30; 6.26 µM in the series on H2030. Also, the Tumor growth result in the series with Ewing's sarcoma (EW13) (30% captisol, EW13 PDX in C.B.17 scid females) was “completely suppressed the tumor growth”. The Body weight result with Ewing's sarcoma (EW13) (EW13 PDX mouse) is listed as “without any apparent loss in body weight”. Moreover, the “Growth/killing of endometrial cancer cells” value in the series on endometrial cancer cells was “kills; also recorded: inhibits the growth”.

The values are drawn from patent publication US20250375450A1, “SMARCA2/4 INHIBITION AS A STRATEGY TO TREAT TUMORS THAT HARBOR ABERRANT BAF ASSEMBLIES” (BOARD OF REGENTS, THE UNIVERSITY OF TEXAS SYSTEM, priority 2022, published 2025).
